From paper PMC10747602, “Dose Response, Dosimetric, and Metabolic Evaluations of Replacement PFAS Perfluoro-(2,5,8-trimethyl-3,6,9-trioxadodecanoic) Acid (HFPO-TeA)” (Toxics, 2023)
Where “and” joins values, the source holds several entries; their conditions need not be identical. Identical values can stand only once.

Tests used:
[1] = parameters: method as in PMID 21948869, PMID 36309054; conditions: cited from earlier work
[2] = Hepatocyte metabolic stability (clearance) assay, rat hepatocytes; conditions: both, Sprague Dawley, rat, hepatocytes
Procedure: (§1) Information on the chemicals and materials used in the hepatocyte metabolic work can be found in Supplementary Text S9 and Table S3. In vitro evaluations of hepatocyte metabolic stability were performed in human and rat hepatocytes, as previously described. Briefly, pooled, cryopreserved hepatocyte suspensions were thawed, assessed for viability, and then diluted in William’s medium E containing dexamethasone and cell maintenance cocktail B to achieve a cell density of 50,000 cells/100 µL. The assay was started by adding hepatocyte suspensions to wells of 96-well polypropylene plates containing an equal volume of media with 2 µM of analyte (final assay concentration: 1 µM). Plates were placed in a 37 °C cell culture incubator (5% CO2) on a shaker set to 200 rpm. Time points assessed were T0, T15, T30, T60, T120, and T240 min. At each time point, the plates were removed from the shaker and the incubates were crashed with an equal volume of ice-cold ACN containing 1.2% FA and 16 ng/mL of ^13C3 -HFPO-DA. After chilling and centrifugation at 4122× g, the supernatants were transferred to new collection plates and stored at −70 °C until analysis for the parent compound on the Waters instrumentation described below. Immediately prior to analysis, samples were thawed, vortexed, and centrifuged at 4200× g, and then diluted 1:4 in 95:5 H2O/ACN with 2.5 mM of ammonium acetate. Negative controls, including no cell controls and metabolically inactivated hepatocytes, were run concurrently to assess the chemical stability over the time course.
(§2) Intrinsic clearance (Clint; hepatic clearance) calculations are detailed in Supplementary Text S9 [57].
(§3) Targeted, quantitative analysis of in vitro hepatocyte metabolic stability and plasma protein binding assay samples was conducted on a Waters Xevo-TQS micro mass spectrometer (Waters, Milford, MA, USA) ultra-high-performance liquid chromatography tandem mass spectrometry system (UPLC-MS/MS), modified with a PFAS analysis kit. Samples were analyzed in negative ion mode with UniSpray ionization. A CORTECS T3 column (Waters CORTECS, 3 × 100 mm, particle size 2.7 µm) was used for chromatographic separation with a flow rate of 0.6 mL/min and a temperature of 55 °C. Gradient elution was used with eluent A (95:5 H2O/ACN) and eluent B (95:5 ACN/H2O) with 2.5 mM of ammonium acetate. The gradient is available in Table S11. Additional details for MS parameters are found in Table S12 and monitored transitions are found in Table S13.
(§4) Table S2: Data processing parameters used with Sciex MarkerView 1.3.1.
(§5) Support ing Text S9: Hepatocyte Metabolic Stability Assay Materials, Chemicals, and Calculations
(§6) Pooled human and rat cryopreserved primary hepatocyte suspensions were both obtained from
(§7) BioIVT, a US Food and Drug Administration-licensed and inspected donor center, and produced using
(§8) non-transplantable tissue.
(§9) William’s E media, dexamet hasone (98% pure), and cell maintenance cocktail B were obtained from
(§10) Thermo Fisher Scientific (Waltham, MA, USA), the OptiThaw hepatocyte kit from Sekisui/Xenotech
(§11) (Tokyo, Japan), and the trypan blue s (Sekisui/ Xenotech, Tokyo, Japan) and the trypan blue solution from […]

rat hepatocytes = assay: as above; conditions: 1000 nM
Procedure: as §1, §2, §3, §4, §5, §6, §7, §8, §9, §10, §11

[3] = Hepatocyte metabolic stability (clearance) assay, human hepatocytes; conditions: human, hepatocytes, 1000 nM
Procedure: as §1, §2, §3, §4, §5, §6, §7, §8, §9, §10, §11

human hepatocytes = assay: as above; conditions: 1000 nM; for Negative Control Data, No cells (NC), Ln Concentration / Negative Control Data, Heat Treated (HT), Ln Concentration / Ln Concentration: Rep 1-3
Procedure: as §1, §2, §3, §4, §5, §6, §7, §8, §9, §10, §11

Which “underestimation of Css values by previous IVIVE evaluations” value [1] does the source give for `O=S(=O)(O)C(F)(F)C(F)(F)C(F)(F)C(F)(F)C(F)(F)C(F)(F)C(F)(F)C(F)(F)F` [PFOS, perfluorooctane sulfonic acid] here?
The value was over 100 ×.

With `CCOc1ccc(NC(C)=O)cc1` [Phenactin, phenacetin, reference compound] as the molecule, how does the half-life at 1000 nM [2] read?
Its half-life at 1000 nM is 1.44 h.

And the hepatocyte CLint at 1000 nM [2]?
Its hepatocyte CLint at 1000 nM is 16.1 µL/min/1e6 cells.

And the “Negative Control Data, Heat Treated (HT), 15 min” value (rat hepatocytes; heat treated rat hepatocytes, 15 min, Ln concentration, Rep 1-3)?
The value was 3.7605 and 3.8293 and 3.8230.

And the “Negative Control Data, Heat Treated (HT), 240 min” value (rat hepatocytes; heat treated rat hepatocytes, 240 min, Ln concentration, Rep 1-3)?
Its value is 3.8801 and 3.8626 and 3.3989.

And the “Negative Control Data, No cells (NC), 15 min” value (rat hepatocytes; no cells, 15 min, Ln concentration, Rep 1-3)?
The value was 3.7121 and 3.7753 and 3.7677.

And the “Negative Control Data, No cells (NC), 240 min” value (rat hepatocytes; no cells, 240 min, Ln concentration, Rep 1-3)?
Its value is 3.8252 and 3.8743 and 4.0157.

And the “Ln Concentration, 0 min” value (rat hepatocytes; suspended rat hepatocytes, time 0 min, Rep 1-3)?
The value was 3.7431 and 3.7883 and 3.8093.

And the “Ln Concentration, 15 min” value (rat hepatocytes; suspended rat hepatocytes, time 15 min, Rep 1-3)?
Its value is 3.7497 and 3.8776 and 3.8997.

And the “Ln Concentration, 30 min” value (rat hepatocytes; suspended rat hepatocytes, time 30 min, Rep 1-3)?
The value was 3.5148 and 3.4871 and 3.5444.

And the “Ln Concentration, 60 min” value (rat hepatocytes; suspended rat hepatocytes, time 60 min, Rep 1-3)?
The value was 3.0012 and 3.3979 and 3.4757.

And the “Ln Concentration, 120 min” value (rat hepatocytes; suspended rat hepatocytes, time 120 min, Rep 1-3)?
Its value is 2.7575 and 2.7517 and 2.9423.

And the “Ln Concentration, 240 min” value (rat hepatocytes; suspended rat hepatocytes, time 240 min, Rep 1-3)?
Its value is 2.0042 and 1.7029 and 2.0503.

What about the “Linear Regression Best-Fit Slope (Ln concentration vs time)” value (rat hepatocytes; suspended rat hepatocytes, time in min) of the same molecule?
The value was -0.008025.

What about the hepatocyte CLint at 1 µM ([3]; Background-Subtracted Clint, human hepatocytes) of the same molecule?
The hepatocyte CLint at 1 µM was 8.8 µL/min/1e6 cells.

And the hepatocyte CLint at 1 µM ([3]; Clint, human hepatocytes, not background-subtracted)?
Its hepatocyte CLint at 1 µM is 12.1 µL/min/1e6 cells.

And the half-life at 1 µM ([3]; HT-Background Half Life, heat treated human hepatocytes)?
The half-life at 1 µM was 7.1 h.

And the half-life at 1 µM ([3]; Half Life, human hepatocytes, time in min)?
Its half-life at 1 µM is 1.92 h.

What about the “Negative Control Data, No cells (NC), Ln Concentration” value (human hepatocytes; 15 min) of the same molecule?
The value was 3.8649 and 3.8943 and 3.8643.

And the “Negative Control Data, No cells (NC), Ln Concentration” value (human hepatocytes; 240 min)?
The value was 3.9162 and 4.0144 and 3.9729.

And the “HT Background k” value (human hepatocytes; heat treated human hepatocytes)?
The value was -0.0016.

What about the “Negative Control Data, Heat Treated (HT), Ln Concentration” value (human hepatocytes; human hepatocytes, 15 min) of the same molecule?
The value was 4.4085 and 4.9735 and 5.3748.

What about the “Negative Control Data, Heat Treated (HT), Ln Concentration” value (human hepatocytes; human hepatocytes, 240 min) of the same molecule?
Its value is 4.6160 and 4.4891 and 4.5540.

And the “Ln Concentration” value (human hepatocytes; human hepatocytes, time 0 min)?
Its value is 3.7764 and 3.7975 and 3.7223.

What about the “Ln Concentration” value (human hepatocytes; human hepatocytes, time 15 min) of the same molecule?
The value was 3.8137 and 3.7544 and 3.6623.

What about the “Ln Concentration” value (human hepatocytes; human hepatocytes, time 30 min) of the same molecule?
Its value is 3.5799 and 3.7106 and 3.6378.

What about the “Ln Concentration” value (human hepatocytes; human hepatocytes, time 60 min) of the same molecule?
The value was 3.3014 and 3.5121 and 3.4541.

And the “Linear Regression Best-Fit Slope (ln concentration vs time)” value (human hepatocytes; human hepatocytes, time in min)?
Its value is -0.006025.
